For series [1] the following is noted: mode of iron excretion; cited from earlier work.
For series [2] the following is noted: cited from earlier work.
For series [3] the following is noted: rats, 300 μmol/kg intraperitoneally immediately after uranyl acetate; cited from earlier work.
The conditions of series [4]: pH 7.4. On the procedure: Measurements were taken via LC/MS.
To each 5 μL aliquot of stock solution of each sample was added 500 μL of PBS pH 7.4 and 500 μL of octanol and a stir bar. […] Stir bars were removed and samples centrifuged at 15,000 g for 15 minutes to separate the phases, and pipette and syringe were used to remove the upper (octanol) and lower (buffer) phases to empty tubes, respectively. Aliquots of 5 μL were taken from upper phases and diluted with 495 μL of methanol. Aliquots of 50 μL were taken from lower phases and diluted with 450 μL of methanol. Reference solutions of progesterone or metopolol were also prepared and tested as standards.

Setting [5] is: ratio of ICE in one species (monkey) to the other (rat).

Molecules are shown by their SMILES. Like-named read-outs stand apart in the source and are kept apart here.

Broadly, the LogD is lipophilicity at a set pH, counting ionised and neutral species. Read a high LogD as higher lipophilicity.

Regarding `COCCOCCOCCOc1ccc(C2=N[C@@](C)(C(=O)O)CS2)c(O)c1` [Example B, (S)-2-(2-hydroxy-4-(2-(2-(2-methoxyethoxy)ethoxy)ethoxy)phenyl)-4-methyl-4,5-dihydrothiazole-4-carboxylic acid], in series [1], the “Rodent ICE [urine/bile]” value is “[90/10]”. Also, in series [2] (mode of iron excretion), the “Primate ICE [urine/bile]” value was “[96/4]”. The “ICE Ratio” value in series [2] (setting [5]) is on record as 4.6. In addition, the “Uranium Excretion [urine/bile]” value in series [3] is “[35/65]”.

`COCCOCCOCCOc1cccc(C2=N[C@@](C)(C(=O)O)CS2)c1O` [Example E, (S)-2-(2-hydroxy-3-(2-(2-(2-methoxyethoxy)ethoxy)ethoxy)phenyl)-4-methyl-4,5-dihydrothiazole-4-carboxylic acid]: in series [1], the “Rodent ICE [urine/bile]” value was “[95/5]”. In series [2] (mode of iron excretion), the “Primate ICE [urine/bile]” value is “[95/5]”. Besides, the “ICE Ratio” value in series [2] (setting [5]) is 2.2.

In the case of `COCCOCCOCCOCCOc1cccc(C2=N[C@@](C)(C(=O)O)CS2)c1O` [Example F, (S)-2-(3-(2,5,8,11-tetraoxatridecan-13-yloxy)-2-hydroxyphenyl)-4-methyl-4,5-dihydrothiazole-4-carboxylic acid], the “Rodent ICE [urine/bile]” value in series [1] is “[98/2]”. Besides, the “Primate ICE [urine/bile]” value in series [2] (mode of iron excretion) was “[25/75]”. The “ICE Ratio” value in series [2] (setting [5]) is reported as 0.8.

As for `COCCOCCOc1ccc(C2=N[C@@](C)(C(=O)O)CS2)c(O)c1` [Example A, (S)-2-(2-hydroxy-4-(2-(2-methoxyethoxy)ethoxy)phenyl)-4-methyl-4,5-dihydrothiazole-4-carboxylic acid], in series [1], the “Rodent ICE [urine/bile]” value is “[97/3]”. For the same compound, the “ICE Ratio” value in series [2] (primate (capsule) to rodent) was 1.0; in series [2] (primate (sodium salt) to rodent), 1.1. The “Primate ICE [urine/bile]” value is “[93/7]” in series [2] (given as capsule) and “[83/17]” in series [2] (given as sodium salt).

As for `COCCOCCOc1cccc(C2=N[C@@](C)(C(=O)O)CS2)c1O` [Example D, (S)-2-(2-hydroxy-3-(2-(2-methoxyethoxy)ethoxy)phenyl)-4-methyl-4,5-dihydrothiazole-4-carboxylic acid], the “Rodent ICE [urine/bile]” value in series [1] was “[99/1]”.

With `COCCc1ccc(OCC(O)CNC(C)C)cc1` (centres unmarked) [metopolol], the LogD in series [4] is on record as −0.27.

`COCCOCCOCCOCCOc1ccc(C2=N[C@@](C)(C(=O)O)CS2)c(O)c1` [Example C, (S)-2-(4-(2,5,8,11-tetraoxatridecan-13-yloxy)-2-hydroxyphenyl)-4-methyl-4,5-dihydrothiazole-4-carboxylic acid]: in series [1], the “Rodent ICE [urine/bile]” value was “[99/1]”. Besides, the “Primate ICE [urine/bile]” value in series [2] (mode of iron excretion) was “[52/48]”. Also, the “ICE Ratio” value in series [2] (setting [5]) was 0.8.

Values taken from US9045440B2, “Desazadesferrothiocin and desazadesferrothiocin polyether analogues as metal chelation agents” (FerroKin Biosciences, Inc., priority 2010, dated 2015).
